Experimental data taken from patent publication US11213522B2, “Autoimmune-induced glutamatergic receptor dysfunction methods and treatments” (SARAH HERZOG MEMORIAL HOSPITAL EZRAT NASHIM ASSOCIATION, priority 2013, dated 2022).

Legend:
[1] = test system: patient positive for anti-NR1 NMDAR antibodies; assay: Trail-Making-Test (TMT) part A and part B; format: in vivo, human; conditions: post-6 weeks D-serine
Procedure: The trial consisted of two periods, starting with a 2 week lead-in/stabilization period (−2-0) following which the patient was entered in the second period of the study which consisted of a 6 week (0-6), open-label, fixed dose therapy phase. During this phase, the patient received adjuvant treatment with DSR, whose dose was increased from 1500 mg/day (week 1) to 2000 mg/day (weeks 2 and 3) to 3000 mg/day (weeks 4 and 5) and to 4000 mg/day (week 6). The doses of the ongoing medication received by the patient remained fixed throughout the study and no changes in medication were performed.
In addition, cognitive performance was assessed pre- and post DSR treatment. For this purpose, a 1.5-hour neurocognitive assessment battery (nine computerized and two paper/pencil tests) was employed that measures accuracy and speed of performance in major cognition domains, including attention/vigilance, planning, short-term and working memory, decision making, abstraction and mental flexibility. All the tests were formatted like games and puzzles, and were administered to the patient as part of the comprehensive neuropsychiatric assessment at baseline and the end of study. […]

[2] = test system: patient positive for anti-NR1 NMDAR antibodies; assay: Quality of Life Scale (QLS), D-serine clinical trial; format: in vivo, human; conditions: for QLS Symptoms/side-effects: week 0 score 15.63; for QLS Motivation/energy: week 0 score 42.86; for QLS Psychosocial: week 0 score 60
Source text: Out of the seventeen patients that entered the study, the serum of one patient was strongly positive at both serum sample dilutions for the presence of both IgG and IgM classes of anti-NR1 NMDAR antibodies. The patient was a single person having a diagnosis of schizophrenia according to DSM-IV-R criteria (American Psychiatric Association, 2000 Diagnostic and Statistical Manual of Mental Disorders-(DSM-IV-TR), 4th edition. American Psychiatric Association Washington D.C. (Text Revision)). There was no history of mental disorder in the patient's family. The patient had completed post-high school studies and had worked as a secretary. After a period of continuous headaches, for which no organic basis had been found, they had abruptly developed an acute psychosis characterized by grandiose and paranoid delusions, mystical thinking, […] affect and agitation, They had been hospitalized in a psychiatric hospital and underwent treatment with antipsychotic drugs and electroconvulsive therapy with only partial response. The patient had never returned to their previous functional and except for short attempts at living in the community, has been hospitalized ever since. They have been refractory to treatment with various classes of antipsychotic drugs, was not diagnosed with any medical or neurological disorder and was maintained on sulpiride 50 mg/day, citalopram 40 mg/day, lorazepam 1 mg/day and promethazine 50 mg/day. […] DSR is a naturally occurring amino acid that acts in vivo as an obligatory co-agonist at the glycine modulatory site associated with NMDAR. […] Both acute and chronic administration of 1-2 g DSR in humans is known to result in ≥100 times increases in DSR serum levels (Kantrowitz et al., 2010, Schizophr Res121:125-30; Heresco-Levy et al., 2005, Biol Psychiatry 57:577-85). The trial consisted of two periods, starting with a 2 week lead-in/stabilization period (-2-0) following which the patient was entered in the second period of the study which consisted of a 6 week (0-6), open-label, fixed dose therapy phase. During this phase, the patient received adjuvant treatment with DSR, whose dose was increased from 1500 mg/day (week 1) to 2000 mg/day (weeks 2 and 3) to 3000 mg/day (weeks 4 and 5) and to 4000 mg/day (week 6). The doses of the ongoing medication received by the patient remained fixed throughout the study and no changes in medication were performed. The assessment procedures used in the study included clinical and neurocognitive examinations. Motor and psychiatric symptoms as well as side-effects were rated biweekly throughout the study. The following instruments were used: 1) Positive and Negative Syndrome Scale (PANSS) (Kay et al., 1987, Positive and Negative Syndrome Scale (PANSS) rating manual. San Rafael California: Social and Behavioral Sciences Documents); 2) Quality of Life Scale (QLS) (Wilkinson et al., 2000, Self-report quality of life measure for people with schizophrenia: the SQLS. Br J Psychiatry 177:42-6); 3) Abnormal Involuntary Movement Scale (AIMS) (Guy, 1976, ECDEU Assessment Manual for Psychopharmacology-Revised. Rockville, Md.: US Dept. of Health, Education and Welfare); 4) Simpson Angus Scale for Extrapyramidal Symptoms (SAS) (Simpson and Angus, 1970, Acta Psychiatr Scand Suppl. 212:11-9); and 5) Udvalg for […] Undersogelser (UKU) Side Effect Rating Scale (Lingjaerde, et al., 1987 Acta Psychiatr Scand Suppl 334:1-100). In conjunction with UKU ratings, patient's vital signs and body weight were monitored throughout the study.

N[C@H](CO)C(=O)O [D-serine]
TMT Part A ([1]; pre-treatment 42): 60.71 s
TMT Part B ([1]; pre-treatment 102): 86.35 s
Quality of life of the patient ([2]; during treatment with DSR): improved considerably
Reduction in reported symptoms and side effects (QLS) ([2]; end of the 6 week treatment period vs baseline): ~3 times
QLS Symptoms/side-effects ([2]; study week 2): 9.38
QLS Motivation/energy ([2]; study week 2): 42.86
QLS Psychosocial ([2]; study week 2 of adjuvant D-serine): 55
QLS Symptoms/side-effects ([2]; study week 4): 9.38
QLS Motivation/energy ([2]; study week 4): 42.86
QLS Psychosocial ([2]; study week 4 of adjuvant D-serine): 50
QLS Symptoms/side-effects ([2]; study week 6): 3.13
QLS Motivation/energy ([2]; study week 6): 42.86
QLS Psychosocial ([2]; study week 6 of adjuvant D-serine): 38.33
